Reference: patent publication US6710168B1, “Glycopeptide antibiotics, combinatorial libraries of glycopeptide antibiotics and methods of producing same” (The Trustees of the University of Princeton, priority 1999, dated 2004)
Values after ≈ are worked out from the molar mass of the structure shown.

Assays:
Assay type in all cases: cell-based
[1] = test system: gentamicin, streptmycin, vancomycin resistant Enterococcus faecalis (ATCC 51299); assay: microbe, parasite or virus in culture; conditions: for MIC: Enterococcus faecalis, ATCC51299, read-out: MIC VREF; for MIC VREF: Enterococcus faecalis ATCC51299, vancomycin resistance
Protocol: (§1) Evaluation of vancomycin analogs is performed using in vitro susceptibility tests and a time-kill assay. [NCCL Standard, 1993] In susceptibility tests, five strains of bacteria, two of the most important: Staphylococcus aureus and Enterococcus faecalis (both susceptible and resistant strains), and Bacillus cereus are chosen and bacteria viability remaining in each well is evaluated using a colorimetric assay based on the tetrazolium salt 3-(4,5-dimethyl-2-thiazolyl)-2,5-diphenyl-2H tetrazolium bromide (MTT) and minimum inhibitory concentration (MIC) values are determined as μg/mL. [Mosmann, T. (1983); Damour, O., et al. (1992); Mikami, Y., et al. (1994)] This assay gives susceptibility information quickly, efficiently, and clearly.
(§2) All strains [Bacillus cereus (ATCC® 11778), Staphylococcus aureus (ATCC® 29213), Methicillin resistant Staphylococcus aureus (ATCC® 33591), Enterococcus faecalis (ATCC® 29212), and gentamicin, streptmycin, vancomycin resistant Enterococcus faecalis (ATCC® 51299), are purchased from REMEL (Lenexa, Kans.).
(§3) MICs are determined by the microdilution method using 96-well microplates. Samples are suspended with Cation Adjusted (20 to 25 mg of Ca^2+/mL and 10 to […] of Mg^2+) Mueller-Hinton broth (Difco Laboratories, Detroit, Mich.) and are two-fold diluted from 5 μg/mL to […] on microplates (12 step dilution). To each well, which contained 100 μL of cell suspension (10^6 CFU/mL), 100 μL of antibiotic solution is added and the plates are incubated at 37° C. for 24 h. 50 μL of MTT solution (1 mg/mL) is added to each well, then the plates are incubated under the same conditions (incubation time; 30 min for Bacillus cereus, Staphylococcus aureus, and Methicillin resistant Staphylococcus aureus; 2 hours for Enterococcus faecalis and Gentamicin, Streptmycin, Vancomycin Enterococcus faecalis). MTT is a yellow tetrazolium salt that is reduced by mitochondrial enzymes in viable cells to an insoluble blue formazan product. MIC values are evaluated by observing the lowest drug concentration to inhibit bacteria growth.

[2] = test system: Enterococcus faecalis CL5244, VanB; assay: MIC susceptibility test; conditions: Enterococcus faecalis CL5244, VanB; for MIC: read-out: MIC CL5244
Protocol: as §1, §3

[3] = test system: Enterococcus faecium CL5137, VanA; assay: MIC susceptibility test; conditions: Enterococcus faecium CL5137, VanA; for MIC: read-out: MIC CL5137
[4] = test system: Methicillin resistant Staphylococcus aureus (ATCC 33591); assay: MIC susceptibility test, microdilution with MTT readout; conditions: Staphylococcus aureus ATCC3359, Methicillin resistance; for MIC: ATCC 3359 / ATCC 33591 / MRSA, read-out: MIC MRSA
Protocol: as §1, §2, §3

[5] = test system: Bacillus cereus (ATCC 11778); assay: as above; conditions: for MIC: Bacillus cereus, ATCC11778, read-out: MIC BC; for MIC BC: Bacillus ceres ATCC11778
Protocol: as §1, §2, §3

[6] = test system: Staphylococcus aureus (ATCC 29213); assay: as above; conditions: Staphylococcus aureus ATCC29213; for MIC: read-out: MIC SA
Protocol: as §1, §2, §3

[7] = test system: Enterococcus faecalis (ATCC 29212); assay: as above; conditions: Enterococcus faecalis ATCC29212; for MIC: read-out: MIC EF
Protocol: as §1, §2, §3

| SMILES | MIC [1] [µg/mL] | MIC [2] [µg/mL] | MIC [3] [µg/mL] | MIC [4] [µg/mL] | MIC [5] [µg/mL] | MIC [6] [µg/mL] | MIC [7] [µg/mL] | MIC VREF [1] [µg/mL] | MIC CL5244 [2] [µg/mL] | MIC CL5137 [3] | MIC MRSA [4] [µg/mL] | MIC BC [5] [µg/mL] | MIC SA [6] [µg/mL] | MIC EF [7] [µg/mL] |
| --- | --- | --- | --- | --- | --- | --- | --- | --- | --- | --- | --- | --- | --- | --- |
| CN[C@@H](CC(C)C)C(=O)N[C@H]1C(=O)N[C@@H](CC(N)=O)C(=O)N[C@H]2C(=O)NC3C(=O)N[C@H](C(=O)N[C@@H](C(=O)O)c4cc(O)cc(O)c4-c4cc3ccc4O)[C@H](O)c3ccc(c(Cl)c3)Oc3cc2cc(c3OC2OC(CNN)C(O)C(O)C2OC2CC(C)(N)C(O)C(C)O2)Oc2ccc(cc2Cl)[C@H]1O (stereo partly shown) [XLIV, Glucose-C6-hydrazine Vancomycin] | 2.5 (≈ 1.71 µM) | 50 (≈ 34.2 µM) | > 50 | 1.3 (≈ 0.888 µM) | 1.3 (≈ 0.888 µM) | 0.63 (≈ 0.431 µM) | 1.3 (≈ 0.888 µM) |  |  |  |  |  |  |  |
| CN[C@@H](CC(C)C)C(=O)N[C@H]1C(=O)N[C@@H](CC(N)=O)C(=O)N[C@H]2C(=O)NC3C(=O)N[C@H](C(=O)N[C@@H](C(=O)O)c4cc(O)cc(O)c4-c4cc3ccc4O)[C@H](O)c3ccc(c(Cl)c3)Oc3cc2cc(c3OC2OC(CSc3nccc(C(F)(F)F)n3)C(O)C(O)C2OC2CC(C)(N)C(O)C(C)O2)Oc2ccc(cc2Cl)[C@H]1O (stereo partly shown) [LX] | 2.5 (≈ 1.55 µM) | > 50 | > 50 | 5 (≈ 3.1 µM) | 5 (≈ 3.1 µM) | 5 (≈ 3.1 µM) | 2.5 (≈ 1.55 µM) |  |  |  |  |  |  |  |
| CN[C@@H](CC(C)C)C(=O)N[C@H]1C(=O)N[C@@H](CC(N)=O)C(=O)N[C@H]2C(=O)NC3C(=O)N[C@H](C(=O)N[C@@H](C(=O)O)c4cc(O)cc(O)c4-c4cc3ccc4O)[C@H](O)c3ccc(c(Cl)c3)Oc3cc2cc(c3OC2OC(CSc3nnc(C)c(O)n3)C(O)C(O)C2OC2CC(C)(NCc3ccc(-c4ccc(Cl)cc4)cc3)C(O)C(C)O2)Oc2ccc(cc2Cl)[C@H]1O (stereo partly shown) [LXXXVI, N-4-(4-Chlorophenyl)benzylvancosamine-glucose-C6-2-thio-6-azathymine Vancomycin] | 0.16 (≈ 0.0901 µM) | 0.4 (≈ 0.225 µM) | 3.2 (≈ 1.8 µM) | 1 (≈ 0.563 µM) | 0.32 (≈ 0.18 µM) | 1 (≈ 0.563 µM) | 0.12 (≈ 0.0676 µM) |  |  |  |  |  |  |  |
| CCCCCCCCCCNC1(C)CC(OC2C(Oc3c4cc5cc3Oc3ccc(cc3Cl)[C@@H](O)[C@@H](NC(=O)[C@H](CC(C)C)NC)C(=O)N[C@@H](CC(N)=O)C(=O)N[C@H]5C(=O)NC3C(=O)N[C@H](C(=O)N[C@@H](C(=O)O)c5cc(O)cc(O)c5-c5cc3ccc5O)[C@H](O)c3ccc(c(Cl)c3)O4)OC(CSc3nc(-c4ccccc4)c(-c4ccccc4)o3)C(O)C2O)OC(C)C1O (stereo partly shown) [LXXXII, N-Decylvancosamine-glucose-C6-2-thio-4,5-diphenyloxazole Vancomycin] | > 5 | 13 (≈ 7.12 µM) | > 50 | > 5 | > 5 | > 5 | > 5 |  |  |  |  |  |  |  |
| CNC(CC(C)C)C(=O)NC1C(=O)NC(CC(N)=O)C(=O)NC2C(=O)NC3C(=O)NC(C(=O)NC(C(=O)O)c4cc(O)cc(O)c4-c4cc3ccc4O)C(O)c3ccc(c(Cl)c3)Oc3cc2cc(c3OC2OC(CI)C(O)C(O)C2OC2CC(C)(N)C(O)C(C)O2)Oc2ccc(cc2Cl)C1O (stereo not shown) [LXX, Glucose-C6-iodo Vancomycin] |  |  |  |  |  |  |  | 1.9 (≈ 1.22 µM) | 6.3 (≈ 4.04 µM) | 50< μg/mL | 1.3 (≈ 0.834 µM) | 0.63 (≈ 0.404 µM) | 0.63 (≈ 0.404 µM) | 0.63 (≈ 0.404 µM) |
| CNC(CC(C)C)C(=O)NC1C(=O)NC(CC(N)=O)C(=O)NC2C(=O)NC3C(=O)NC(C(=O)NC(C(=O)O)c4cc(O)cc(O)c4-c4cc3ccc4O)C(O)c3ccc(c(Cl)c3)Oc3cc2cc(c3OC2OC(CNC(=O)c3ccc(-c4ccc(Cl)cc4)cc3)C(O)C(O)C2OC2CC(C)(N)C(O)C(C)O2)Oc2ccc(cc2Cl)C1O (stereo not shown) [XXXVIII, Glucose-C6-N-4-(4-chlorophenyl)benzoyl Vancomycin] |  |  |  |  |  |  |  | 0.16 (≈ 0.0962 µM) | 0.4 (≈ 0.241 µM) | 50< μg/mL | 0.63 (≈ 0.379 µM) | 0.32 (≈ 0.192 µM) | 1.0 (≈ 0.601 µM) | 0.32 (≈ 0.192 µM) |
| CNC(CC(C)C)C(=O)NC1C(=O)NC(CC(N)=O)C(=O)NC2C(=O)NC3C(=O)NC(C(=O)NC(C(=O)O)c4cc(O)cc(O)c4-c4cc3ccc4O)C(O)c3ccc(c(Cl)c3)Oc3cc2cc(c3OC2OC(CNCc3ccc(-c4ccc(Cl)cc4)cc3)C(O)C(O)C2OC2CC(C)(N)C(O)C(C)O2)Oc2ccc(cc2Cl)C1O (stereo not shown) [XXIX, Glucose-C6-N-4-(4-chlorophenyl)benzyl Vancomycin] |  |  |  |  |  |  |  | 0.63 (≈ 0.382 µM) | 0.6 (≈ 0.364 µM) | 50 µg/mL (≈ 30.3 µM) | 0.63 (≈ 0.382 µM) | 0.63 (≈ 0.382 µM) | 0.63 (≈ 0.382 µM) | 0.63 (≈ 0.382 µM) |
| CN[C@@H](CC(C)C)C(=O)N[C@H]1C(=O)N[C@@H](CC(N)=O)C(=O)N[C@H]2C(=O)NC3C(=O)N[C@H](C(=O)N[C@@H](C(=O)O)c4cc(O)cc(O)c4-c4cc3ccc4O)[C@H](O)c3ccc(c(Cl)c3)Oc3cc2cc(c3OC2OC(CSc3nnc(N)s3)C(O)C(O)C2OC2CC(C)(NCc3ccc(-c4ccc(Cl)cc4)cc3)C(O)C(C)O2)Oc2ccc(cc2Cl)[C@H]1O (stereo partly shown) [LXXXIII, N-4-(4-Chlorophenyl)benzylvancosamine-glucose-C6-2-thio-5-amino-1,3,4-thiadiazole Vancomycin] | 0.32 (≈ 0.181 µM) | 0.2 (≈ 0.113 µM) | 3.2 (≈ 1.81 µM) | 0.48 (≈ 0.272 µM) | 0.32 (≈ 0.181 µM) | 0.48 (≈ 0.272 µM) | 0.16 (≈ 0.0906 µM) |  |  |  |  |  |  |  |
| CNC(CC(C)C)C(=O)NC1C(=O)NC(CC(N)=O)C(=O)NC2C(=O)NC3C(=O)NC(C(=O)NC(C(=O)O)c4cc(O)cc(O)c4-c4cc3ccc4O)C(O)c3ccc(c(Cl)c3)Oc3cc2cc(c3OC2OC(CSc3cccc(Cl)c3)C(O)C(O)C2OC2CC(C)(N)C(O)C(C)O2)Oc2ccc(cc2Cl)C1O (stereo not shown) [LV, Glucose-C6-3-chlorothiophenyl Vancomycin] |  |  |  |  |  |  |  | 0.63 (≈ 0.4 µM) | 3.2 (≈ 2.03 µM) | 50< μg/mL | 0.32 (≈ 0.203 µM) | 0.63 (≈ 0.4 µM) | 0.48 (≈ 0.305 µM) | 0.63 (≈ 0.4 µM) |
| CN[C@@H](CC(C)C)C(=O)N[C@H]1C(=O)N[C@@H](CC(N)=O)C(=O)N[C@H]2C(=O)NC3C(=O)N[C@H](C(=O)N[C@@H](C(=O)O)c4cc(O)cc(O)c4-c4cc3ccc4O)[C@H](O)c3ccc(c(Cl)c3)Oc3cc2cc(c3OC2OC(CNCc3cc(Cl)ccc3O)C(O)C(O)C2OC2CC(C)(N)C(O)C(C)O2)Oc2ccc(cc2Cl)[C@H]1O (stereo partly shown) [XXXIX, Glucose-C6-5-chloro-2-hydroxy-benzylamine Vancomycin] | > 5 | 25 (≈ 15.7 µM) | > 50 | 1.3 (≈ 0.818 µM) | 1.3 (≈ 0.818 µM) | 1.3 (≈ 0.818 µM) | 2.5 (≈ 1.57 µM) |  |  |  |  |  |  |  |
